Source: patent US11802120B2, “Fused cyclic urea derivatives as CRHR2 antagonist” (RaQualia Pharma Inc., priority 2018, dated 2023)

Target: T1, human CRHR2-alpha (Homo sapiens, UniProt Q13324)
T1 sequence (Q13324 1-411): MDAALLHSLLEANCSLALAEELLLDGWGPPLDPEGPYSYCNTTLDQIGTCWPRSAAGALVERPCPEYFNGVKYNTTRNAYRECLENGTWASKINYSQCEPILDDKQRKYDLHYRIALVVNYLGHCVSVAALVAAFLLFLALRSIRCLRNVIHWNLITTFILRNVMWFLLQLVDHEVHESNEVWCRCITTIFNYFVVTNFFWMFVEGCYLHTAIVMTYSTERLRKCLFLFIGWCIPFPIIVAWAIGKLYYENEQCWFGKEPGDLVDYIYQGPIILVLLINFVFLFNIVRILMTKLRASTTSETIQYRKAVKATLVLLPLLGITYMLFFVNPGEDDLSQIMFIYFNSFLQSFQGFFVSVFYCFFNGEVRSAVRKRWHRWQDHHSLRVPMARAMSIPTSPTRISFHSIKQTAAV
Assay: cAMP functional assay for human CRHR2 (LANCE Ultra cAMP, TR-FRET)
Format: cell-based
Details: CHO-K1 cells expressing human CRHR2-alpha, agonist human urocortin2 at EC80, cAMP; read-out: IC50 against CRHR2
How it was run: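 Antagonism measured in CHO-K1 cells stably expressing the receptor, serum-starved 7 h then cryopreserved. Thawed cells in HBSS buffer with 0.1% BSA, 0.5 mM IBMX, 5 mM Hepes pH 7.4 were preincubated with compound 30 min at 25° C, then stimulated 30 min with EC80 agonist: urocortin2 for CRHR2, CRF for CRHR1.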

| IC50 [nM] | Structure (SMILES) |
| --- | --- |
| < 300 | COc1ncc(-n2c(=O)n(C[C@H]3CC[C@H](NC(=O)c4cc(Cl)cnc4C)CC3)c3ccccc32)cc1C [Example 120, 5-chloro-N-((1r,4r)-4-((3-(6-methoxy-5-methylpyridin-3-yl)-2-oxo-2,3-dihydro-1H-benzo[d]imidazol-1-yl)methyl)cyclohexyl)-2-methylnicotinamide] |
| < 300 | CNC(=O)c1ccc(-n2c(=O)n(C[C@H]3CC[C@H](NC(=O)c4cc(Cl)cnc4C(F)(F)F)CC3)c3ccccc32)cn1 [Example 240, 5-(3-(((1r,4r)-4-(5-chloro-2-(trifluoromethyl)nicotina-mido)cyclohexyl)methyl)-2-oxo-2,3-dihydro-1H-benzo [d]imidazol-1-yl)-N-methylpicolinamide] |
| < 300 | Cc1ncc(Cl)cc1C(=O)N[C@H]1CC[C@H](Cn2c(=O)n(-c3ccc(-c4cnn(C)c4)nc3)c3ccccc32)CC1 [Example 214, 5-chloro-2-methyl-N-((1r,4r)-4-((3-(6-(1-methyl-1H-pyrazol-4-yl)pyridin-3-yl)-2-oxo-2,3-dihydro-1H-benzo[d]imidazol-1-yl)methyl)cyclohexyl)nico-tinamide] |
| < 300 | O=C(N[C@H]1CC[C@H](Cn2c(=O)n(-c3ccc(NCCO)cn3)c3ccccc32)CC1)c1cc(Cl)cnc1C(F)F [Example 715, 5-chloro-2-(difluoromethyl)-N-((1r,4r)-4-((3-(5-((2-hydroxyethyl)amino)pyridin-2-yl)-2-oxo-2,3-dihydro-1H-benzo[d]imidazol-1-yl)methyl)cyclohexyl)nicotinamide] |
| < 300 | COc1ccc(F)c(-n2c(=O)n(C[C@H]3CC[C@H](NC(=O)c4cc(Cl)cnc4C(F)F)CC3)c3ncccc32)c1 [Example 720, 5-chloro-2-(difluoromethyl)-N-((1r,4r)-4-((1-(2-fluoro-5-methoxyphenyl)-2-oxo-1H-imidazo[4,5-b]pyridin-3(2H)-yl)methyl)cyclohexyl) nicotinamide] |
| < 300 | CCn1ncc2cc(-n3c(=O)n(C[C@H]4CC[C@H](NC(=O)c5cc(Cl)cnc5C)CC4)c4ccccc43)cnc21 [Example 250, 5-chloro-N-((1r,4r)-4-((3-(1-ethyl-1H-pyrazolo[3,4-b]pyridin-5-yl)-2-oxo-2,3-dihydro-1H-benzo[d]imidazol-1-yl)methyl)cyclo-hexyl)-2-methylnicotinamide] |
| < 300 | COc1ccc(-n2c(=O)n(C[C@H]3CC[C@H](NC(=O)c4cc(Cl)cnc4C)CC3)c3cccnc32)cc1OC1CCCC1 [Example 401, 5-chloro-N-((1r,4r)-4-((3-(3-(cyclopentyloxy)-4-methoxy-phenyl)-2-oxo-2,3-dihydro-1H-imidazo[4,5-b]pyridin-1-yl)methyl)cyclohexyl)-2-methylnicotinamide] |
| < 300 | Cc1ncc(Cl)cc1C(=O)N[C@H]1CC[C@H](Cn2c(=O)n(-c3ccc(-c4cncs4)cc3)c3ccccc32)CC1 [Example 580, 5-chloro-2-methyl-N-((1r,4r)-4-((2-oxo-3-(4-(thiazol-5-yl)phenyl)-2,3-dihydro-1H-benzo[d]imidazol-1-yl)methyl)cyclohexyl)nicotinamide] |
| < 300 | Cc1ncc(Cl)cc1C(=O)N[C@H]1CC[C@H](Cn2c(=O)n(-c3ccn4ccnc4c3)c3ccccc32)CC1 [Example 272, 5-chloro-N-((1r,4r)-4-((3-(imidazo[1,2-a]pyridin-7-yl)-2-oxo-2,3-dihydro-1H-benzo [d]imidazol-1-yl)methyl)cyclohexyl)-2-methyl-nicotinamide] |
| < 300 | Cc1ncc(Cl)cc1C(=O)N[C@H]1CC[C@H](Cn2c(=O)n(-c3ccc(NC4CC(F)(F)C4)nc3)c3ccccc32)CC1 [Example 108, 5-chloro-N-((1r,4r)-4-((3-(6-((3,3-difluorocyclobutyl)amino)pyridin-3-yl)-2-oxo-2,3-dihydro-1H-benzo[d]imidazol-1-yl)methyl)cyclohexyl)-2-methylnicotinamide] |
| < 300 | COc1ccc(-n2c(=O)n(C[C@H]3CC[C@H](NC(=O)c4cc(Cl)cnc4C)CC3)c3ccccc32)c(C#N)c1 [Example 231, 5-chloro-N-((1r,4r)-4-((3-(2-cyano-4-methoxyphenyl)-2-oxo-2,3-dihydro-1H-benzo[d]imidazol-1-yl)methyl)cyclo-hexyl)-2-methylnicotinamide] |
| < 300 | Cn1cc(CCn2c(=O)n(C[C@H]3CC[C@H](NC(=O)c4cc(Cl)cnc4C(F)(F)F)CC3)c3ccccc32)cn1 [Example 303, 5-chloro-N-((1r,4r)-4-((3-(2-(1-methyl-1H-pyrazol-4-yl)ethyl)-2-oxo-2,3-dihydro-1H-benzo[d]imidazol-1-yl)methyl)cyclohexyl)-2-(trifluoromethyl)nicotinamide] |
| < 300 | Cc1ncc(Cl)cc1C(=O)N[C@H]1CC[C@H](Cn2c(=O)n(-c3cccc(-n4ccnn4)c3)c3ccccc32)CC1 [Example 537, N-((1r,4r)-4-((3-(3-(1H-1,2,3-triazol-1-yl)phenyl)-2-oxo-2,3-dihydro-1H-benzo[d]imidazol-1-yl)methyl)cyclohexyl)-5-chloro-2-methylnicotinamide] |
| < 300 | Cc1cc(N2CCNC2=O)ncc1-n1c(=O)n(C[C@H]2CC[C@H](NC(=O)c3cc(Cl)cnc3C(F)F)CC2)c2ccccc21 [Example 558, 5-chloro-2-(difluoromethyl)-N-((1r,4r)-4-((3-(4-methyl-6-(2-oxoimidazolidin-1-yl)pyridin-3-yl)-2-oxo-2,3-dihydro-1H-benzo[d]imidazol-1-yl)methyl)cyclohexyl) nicotinamide] |
| < 300 | CNC(=O)c1cc2cc(-n3c(=O)n(C[C@H]4CC[C@H](NC(=O)c5cc(Cl)cnc5C)CC4)c4ccccc43)ccc2n1C [Example 404, 5-(3-(((1r,4r)-4-(5-chloro-2-methylnicotinamido)cyclo-hexyl)methyl)-2-oxo-2,3-dihydro-1H-benzo[d]imidazol-1-yl)-N,1-dimethyl-1H-indole-2-carboxamide] |
| < 300 | CCn1nc2ccccc2c1C(=O)N[C@H]1CC[C@H](Cn2c(=O)n(-c3ccc(OC)cc3)c3ccccc32)CC1 [Example 37, 2-ethyl-N-((1r,4r)-4-((3-(4-methoxyphenyl)-2-oxo-2,3-dihydro-1H-benzo[d]imidazol-1-yl)methyl)cyclohexyl)-2H-indazole-3-carboxamide] |
| < 300 | CNc1cncc(-n2c(=O)n(C[C@H]3CC[C@H](NC(=O)c4cc(Cl)cnc4C)CC3)c3ccccc32)c1 [Example 487, 5-chloro-2-methyl-N-((1r,4r)-4-((3-(5-(methylamino)pyridin-3-yl)-2-oxo-2,3-dihydro-1H-benzo[d]imidazol-1-yl)methyl)cyclohexyl)nicotinamide] |
| < 300 | Cc1nccc(-n2c(=O)n(C[C@H]3CC[C@H](NC(=O)c4cc(Cl)cnc4C(F)F)CC3)c3ccccc32)c1C [Example 364, 5-chloro-2-(difluoromethyl)-N-((1r,4r)-4-((3-(2,3-dimethyl-pyridin-4-yl)-2-oxo-2,3-dihydro-1H-benzo[d]imidazol-1-yl)methyl)cyclohexyl)nicotinamide] |
| < 300 | CNc1ccc(-n2c(=O)n(C[C@H]3CC[C@H](NC(=O)c4cc(Cl)cnc4C(F)(F)F)CC3)c3ccc(F)cc32)cn1 [Example 705, 5-chloro-N-((1r,4r)-4-((5-fluoro-3-(6-(methylamino)pyridin-3-yl)-2-oxo-2,3-dihydro-1H-benzo[d]imidazol-1-yl)methyl)cyclo-hexyl)-2-(trifluoromethyl) nicotinamide] |
| < 300 | Cc1ncc(Cl)cc1C(=O)N[C@H]1CC[C@H](Cn2c(=O)n(-c3cnc4c(c3)OCC(=O)N4C)c3ccccc32)CC1 [Example 196, 5-chloro-2-methyl-N-((1r,4r)-4-((3-(4-methyl-3-oxo-3,4-dihydro-2H-pyrido[3,2-b][1,4]oxazin-7-yl)-2-oxo-2,3-dihydro-1H-benzo[d]imidazol-1-yl)methyl)cyclohexyl) nicotinamide] |
| < 300 | Cc1ncc(Cl)cc1C(=O)N[C@H]1CC[C@H](Cn2c(=O)n(-c3ccc(OCC(F)F)nc3)c3ccccc32)CC1 [Example 35, 5-chloro-N-((1r,4r)-4-((3-(6-(2,2-difluoroethoxy)pyridin-3-yl)-2-oxo-2,3-dihydro-1H-benzo[d]imidazol-1-yl)methyl)cyclohexyl)-2-methylnicotinamide] |
| < 300 | CC(=O)c1ccc(-n2c(=O)n(C[C@H]3CC[C@H](NC(=O)c4cc(Cl)cnc4C(F)F)CC3)c3cccnc32)cc1 [Example 400, N-((1r,4r)-4-((3-(4-acetylphenyl)-2-oxo-2,3-dihydro-1H-imidazo [4,5-b]pyridin-1-yl)methyl)cyclo-hexyl)-5-chloro-2-(difluoro-methyl)nicotinamide] |
| < 300 | CC(=O)N1Cc2ccc(-n3c(=O)n(C[C@H]4CC[C@H](NC(=O)c5cc(Cl)cnc5C)CC4)c4ccccc43)cc2C1 [Example 188, N-((1r,4r)-4-((3-(2-acetylisoindolin-5-yl)-2-oxo-2,3-dihydro-1H-benzo[d]imidazol-1-yl)methyl)cyclohexyl)-5-chloro-2-methylnicotinamide] |

| Structure (SMILES) | IC50 [nM] |
| --- | --- |
| Cc1ncc(Cl)cc1C(=O)N[C@H]1CC[C@H](Cn2c(=O)n(-c3ccnc4ccccc34)c3ccccc32)CC1 [Example 370, 5-chloro-2-methyl-N-((1r,4r)-4-((2-oxo-3-(quinolin-4-yl)-2,3-dihydro-1H-benzo[d]imi-dazol-1-yl)methyl)cyclohexyl) nicotinamide] | < 300 |
